Data from ChEMBL document CHEMBL1136587, “Optimisation of aryl substitution leading to potent methionyl tRNA synthetase inhibitors with excellent gram-positive antibacterial activity” (Bioorg Med Chem Lett, 2003).
In brackets after ≈: the same amount, converted by molar mass.

Experiments:
Enterococcus faecalis = assay: In vitro Antibacterial activity of compound against Enterococcus faecalis 1; assay type: functional
Staphylococcus aureus [1] = assay: In vitro Antibacterial activity of compound against Staphylococcus aureus Oxford; assay type: functional
Staphylococcus aureus [2] = assay: In vitro Antibacterial activity of compound against Staphylococcus aureus
[3] = test system: Staphylococcus epidermidis; assay: In vitro Antibacterial activity of compound against Staphylococcus epidermidis
Enterococcus faecium = assay: In vitro Antibacterial activity of compound against Enterococcus faecium
[4] = target: Methionine--tRNA ligase (Enterococcus faecalis (strain ATCC 700802 / V583)) (UniProt Q837B3); assay: In vitro Antibacterial activity of compound against Enterococcus faecalis; assay type: functional
[5] = target: Methionine--tRNA ligase (Enterococcus faecalis (strain ATCC 700802 / V583)) (UniProt Q837B3); assay: In vitro Antibacterial activity of compound against Enterococcus faecalis 7; assay type: functional

Sequence of Methionine--tRNA ligase (Enterococcus faecalis (strain ATCC 700802 / V583)) (Q837B3 whole entry): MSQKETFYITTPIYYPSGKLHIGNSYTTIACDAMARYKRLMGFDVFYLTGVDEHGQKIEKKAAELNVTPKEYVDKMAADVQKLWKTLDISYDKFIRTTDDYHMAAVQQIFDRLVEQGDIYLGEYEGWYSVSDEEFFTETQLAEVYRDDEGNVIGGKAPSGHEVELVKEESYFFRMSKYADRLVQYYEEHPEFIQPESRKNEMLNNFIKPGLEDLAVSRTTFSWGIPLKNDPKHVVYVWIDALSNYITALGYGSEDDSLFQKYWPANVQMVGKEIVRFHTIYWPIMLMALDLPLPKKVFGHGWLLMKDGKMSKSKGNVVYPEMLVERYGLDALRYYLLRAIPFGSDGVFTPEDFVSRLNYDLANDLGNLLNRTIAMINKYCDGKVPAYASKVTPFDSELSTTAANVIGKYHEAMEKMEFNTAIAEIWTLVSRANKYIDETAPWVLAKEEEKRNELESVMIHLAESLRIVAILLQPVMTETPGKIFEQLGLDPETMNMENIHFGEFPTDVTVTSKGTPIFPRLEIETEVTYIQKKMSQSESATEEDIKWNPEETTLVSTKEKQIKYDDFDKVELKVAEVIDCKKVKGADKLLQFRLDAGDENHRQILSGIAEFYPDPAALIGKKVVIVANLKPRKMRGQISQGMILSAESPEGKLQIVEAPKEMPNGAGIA

SMILES | MIC (Enterococcus faecalis) | MIC (Staphylococcus aureus [1]) | also measured
Oc1cc(NCCCNC2CCc3c(Cl)cc(Cl)cc32)nc2ccccc12 (stereo not given) | < 0.06 µg/mL | 0.25 µg/mL (≈ 0.621 µM) | 
O=c1cc(NCCCNC2CCOc3c(I)cc(Cl)cc32)[nH]c2ccccc12 (stereo not given) | < 0.06 µg/mL | < 0.06 µg/mL | MIC90 (Staphylococcus aureus [2]): 0.25 µg/mL (≈ 0.49 µM); MIC90 [3]: 0.25 µg/mL (≈ 0.49 µM)
Oc1cc(NCCCNC2CCNc3c(Br)cc(Cl)cc32)nc2ccccc12 (stereo not given) | < 0.06 µg/mL | < 0.06 µg/mL | MIC90 (Staphylococcus aureus [2]): 1 µg/mL (≈ 2.17 µM); MIC90 [3]: 1 µg/mL (≈ 2.17 µM); MIC90 (Enterococcus faecium): < 0.016 µg/mL; MIC90 [4]: 0.06 µg/mL (≈ 0.13 µM)
CCOc1c(C)cc(C(F)(F)F)cc1CNCCCNc1cc(=O)c2ccccc2[nH]1 | 0.25 µg/mL (≈ 0.577 µM) | 0.5 µg/mL (≈ 1.15 µM) | 
CCOc1c(CNCCCNc2cc(O)c3ccccc3n2)cc(I)cc1OC | < 0.06 µg/mL | 2 µg/mL (≈ 3.94 µM) | 
CC(C)Oc1c(Cl)cc(Cl)cc1CNCCCNc1cc(O)c2ccccc2n1 |  | 2 µg/mL (≈ 4.6 µM) | MIC [5]: 0.5 µg/mL (≈ 1.15 µM)
Oc1cc(NCCCNCc2cc(Br)cc(Br)c2)nc2ccccc12 | < 0.06 µg/mL | 0.25 µg/mL (≈ 0.537 µM) | 
CCc1cc(I)c2c(c1)C(NCCCNc1cc(=O)c3ccccc3[nH]1)CCN2 (stereo not given) | < 0.06 µg/mL | 0.25 µg/mL (≈ 0.498 µM) | MIC90 (Staphylococcus aureus [2]): 1 µg/mL (≈ 1.99 µM); MIC90 [3]: 1 µg/mL (≈ 1.99 µM); MIC90 (Enterococcus faecium): 0.06 µg/mL (≈ 0.119 µM); MIC90 [4]: 0.25 µg/mL (≈ 0.498 µM)
CCOc1c(Br)cc(Br)cc1CNCCCNc1cc(O)c2ccccc2n1 | < 0.06 µg/mL | < 0.06 µg/mL | 
Oc1cc(NCCCNCc2cc(I)cc(I)c2)nc2ccccc12 | < 0.06 µg/mL | < 0.06 µg/mL | 
Oc1cc(NCCCSCc2ccc(Cl)c(Cl)c2)nc2ccccc12 | > 64 µg/mL | > 64 µg/mL | 
CCOc1c(CO)cc(I)cc1CNCCCNc1cc(O)c2ccccc2n1 | 32 µg/mL (≈ 63.1 µM) | 32 µg/mL (≈ 63.1 µM) | 
CCOc1c(Br)cc(S(C)(=O)=O)cc1CNCCCNc1cc(O)c2ccccc2n1 | 8 µg/mL (≈ 15.7 µM) | > 64 µg/mL | 
Cc1cc(Br)cc2c1NCCC2NCCCNc1cc(O)c2ccccc2n1 (stereo not given) | < 0.06 µg/mL | 0.5 µg/mL (≈ 1.13 µM) | 
Oc1cc(NCCCNCc2cc(Br)cc(I)c2)nc2ccccc12 | < 0.06 µg/mL | < 0.06 µg/mL | 
CCOc1cc(Br)c(OCC)c(CNCCCNc2cc(O)c3ccccc3n2)c1 | 4 µg/mL (≈ 8.43 µM) | 8 µg/mL (≈ 16.9 µM) | 
Oc1cc(NCCCNC2CCNc3c(Cl)cc(Br)cc32)nc2ccccc12 (stereo not given) | < 0.06 µg/mL | < 0.06 µg/mL | 
CCOc1c(Br)cc(SC)cc1CNCCCNc1cc(O)c2ccccc2n1 | < 0.06 µg/mL | < 0.06 µg/mL | MIC90 (Staphylococcus aureus [2]): 0.25 µg/mL (≈ 0.525 µM); MIC90 [3]: 0.25 µg/mL (≈ 0.525 µM); MIC90 (Enterococcus faecium): 0.5 µg/mL (≈ 1.05 µM); MIC90 [4]: 0.5 µg/mL (≈ 1.05 µM)
C=CCc1cc(I)cc(CNCCCNc2cc(O)c3ccccc3n2)c1OCC | 1 µg/mL (≈ 1.93 µM) | 0.13 µg/mL (≈ 0.251 µM) | 
CCc1cc(Br)cc2c1NCCC2NCCCNc1cc(O)c2ccccc2n1 (stereo not given) | < 0.06 µg/mL | 0.25 µg/mL (≈ 0.549 µM) | 
CCOc1c(C)cc(Cl)cc1CNCCCNc1cc(O)c2ccccc2n1 | < 0.06 µg/mL | 0.25 µg/mL (≈ 0.625 µM) | 

SMILES | MIC (Enterococcus faecalis) | MIC (Staphylococcus aureus [1]) | also measured
Oc1cc(NCCCNC2CCNc3c(Cl)cc(Cl)cc32)nc2ccccc12 (stereo not given) | < 0.06 µg/mL | 0.13 µg/mL (≈ 0.311 µM) | 
CCOC(=O)c1cc(I)cc(CNCCCNc2cc(O)c3ccccc3n2)c1OCC | 8 µg/mL (≈ 14.6 µM) | 32 µg/mL (≈ 58.2 µM) | 
CCOc1c(C#N)cc(Br)cc1CNCCCNc1cc(O)c2ccccc2n1 | 0.25 µg/mL (≈ 0.549 µM) | 0.5 µg/mL (≈ 1.1 µM) | 
CCOc1c(C)cc(I)cc1CNCCCNc1cc(O)c2ccccc2n1 | < 0.06 µg/mL | < 0.06 µg/mL | 
Oc1cc(NCCCNCc2cccc(Cl)c2Cl)nc2ccccc12 |  | 8 µg/mL (≈ 21.3 µM) | MIC [5]: 2 µg/mL (≈ 5.32 µM)
CCOc1c(Br)cc(C#N)cc1CNCCCNc1cc(O)c2ccccc2n1 | 1 µg/mL (≈ 2.2 µM) | 4 µg/mL (≈ 8.78 µM) | 
CCOc1c(I)cc(C)cc1CNCCCNc1cc(O)c2ccccc2n1 | 0.5 µg/mL (≈ 1.02 µM) | 2 µg/mL (≈ 4.07 µM) | 
Oc1cc(NCCCNCc2cc(Br)cc(Br)c2OCC(F)(F)F)nc2ccccc12 | < 0.06 µg/mL | 0.25 µg/mL (≈ 0.444 µM) | 
CCOc1c(CNCCCNc2cc(O)c3ccccc3n2)cc(Br)cc1OC | 2 µg/mL (≈ 4.34 µM) | 4 µg/mL (≈ 8.69 µM) | 
O=c1cc(NCCCNCc2ccc(Cl)c(Cl)c2)[nH]c2ccccc12 | 2 µg/mL (≈ 5.32 µM) | 4 µg/mL (≈ 10.6 µM) | 
C=CCOc1c(Cl)cc(Cl)cc1CNCCCNc1cc(O)c2ccccc2n1 | < 0.06 µg/mL | 0.5 µg/mL (≈ 1.16 µM) | 
Oc1cc(NCCCNCc2ccc(Cl)cc2Cl)nc2ccccc12 |  | 4 µg/mL (≈ 10.6 µM) | MIC [5]: 4 µg/mL (≈ 10.6 µM)
O=c1cc(NCCCNC2CCOc3c(Br)cc(Br)cc32)[nH]c2ccccc12 (stereo not given) | < 0.06 µg/mL | < 0.06 µg/mL | 
CCOc1c(Cl)cc(OC)cc1CNCCCNc1cc(O)c2ccccc2n1 | < 0.06 µg/mL | 0.25 µg/mL (≈ 0.601 µM) | 
CCOc1c(C)cc(Br)cc1CNCCCNc1cc(O)c2ccccc2n1 | < 0.06 µg/mL | 0.13 µg/mL (≈ 0.293 µM) | 
CCOc1c(CNCCCNc2cc(O)c3ccccc3n2)cc(I)cc1COC | 8 µg/mL (≈ 15.3 µM) | 16 µg/mL (≈ 30.7 µM) | 
Oc1cc(NCCCNCc2ccccc2)nc2ccccc12 | > 64 µg/mL | > 64 µg/mL | 
CCOc1c(Br)cc(C)cc1CNCCCNc1cc(O)c2ccccc2n1 | 0.25 µg/mL (≈ 0.563 µM) | 2 µg/mL (≈ 4.5 µM) | 
Nc1c(Br)cc(Br)cc1CNCCCNc1cc(O)c2ccccc2n1 | < 0.06 µg/mL | 0.13 µg/mL (≈ 0.271 µM) | 
CCNc1c(Br)cc(Br)cc1CNCCCNc1cc(O)c2ccccc2n1 | < 0.06 µg/mL | 1 µg/mL (≈ 1.97 µM) | 
Cc1cc(Br)c2c(c1)C(NCCCNc1cc(O)c3ccccc3n1)CCN2 (stereo not given) | 0.25 µg/mL (≈ 0.566 µM) | 1 µg/mL (≈ 2.27 µM) | 

Further lines, with some results ahead:

MIC (Enterococcus faecalis) | MIC (Staphylococcus aureus [1]) | SMILES | also measured
< 0.06 µg/mL | < 0.06 µg/mL | CCOc1c(I)cc(Br)cc1CNCCCNc1cc(O)c2ccccc2n1 | 
0.13 µg/mL (≈ 0.256 µM) | 0.5 µg/mL (≈ 0.985 µM) | CCOc1c(I)cc(OC)cc1CNCCCNc1cc(O)c2ccccc2n1 | 
< 0.06 µg/mL | < 0.06 µg/mL | Oc1cc(NCCCNC2CCNc3c(Br)cc(Br)cc32)nc2ccccc12 (stereo not given) | MIC90 (Staphylococcus aureus [2]): 0.5 µg/mL (≈ 0.988 µM); MIC90 [3]: 0.5 µg/mL (≈ 0.988 µM); MIC90 (Enterococcus faecium): < 0.016 µg/mL; MIC90 [4]: 0.03 µg/mL (≈ 0.0593 µM)
< 0.06 µg/mL | < 0.06 µg/mL | CCOc1c(I)cc(I)cc1CNCCCNc1cc(O)c2ccccc2n1 | 
> 64 µg/mL | > 64 µg/mL | CCOc1c(I)cc(CO)cc1CNCCCNc1cc(O)c2ccccc2n1 | 
> 64 µg/mL | > 64 µg/mL | Oc1cc(NCCCOCc2ccc(Cl)c(Cl)c2)nc2ccccc12 | 
0.13 µg/mL (≈ 0.345 µM) | 1 µg/mL (≈ 2.66 µM) | Oc1cc(NCCCNCc2cc(Cl)cc(Cl)c2)nc2ccccc12 | 
< 0.06 µg/mL | < 0.06 µg/mL | CCOc1c(Br)cc(I)cc1CNCCCNc1cc(O)c2ccccc2n1 | 
8 µg/mL (≈ 15 µM) | 32 µg/mL (≈ 60 µM) | CCOc1c(CNCCCNc2cc(=O)c3ccccc3[nH]2)cc(I)cc1C(C)(C)C | 
1 µg/mL (≈ 2.1 µM) | 0.5 µg/mL (≈ 1.05 µM) | CCOc1c(CNCCCNc2cc(O)c3ccccc3n2)cc(Br)cc1SC | 
< 0.06 µg/mL | < 0.06 µg/mL | CCOc1c(C)cc(SC)cc1CNCCCNc1cc(O)c2ccccc2n1 | 
< 0.06 µg/mL | 0.25 µg/mL (≈ 0.6 µM) | Oc1cc(NCCCNC2CCCc3c(Cl)cc(Cl)cc32)nc2ccccc12 (stereo not given) | 
< 0.06 µg/mL | 0.13 µg/mL (≈ 0.255 µM) | Oc1cc(NCCCNC2CCOc3c(Cl)cc(I)cc32)nc2ccccc12 (stereo not given) | 
0.125 µg/mL (≈ 0.309 µM) | 2 µg/mL (≈ 4.95 µM) | Oc1cc(NCCCNC2COc3c(Cl)cc(Cl)cc32)nc2ccccc12 (stereo not given) | 
 | 0.25 µg/mL (≈ 0.609 µM) | Oc1cc(NCCCNCc2cc(Cl)cc(Cl)c2Cl)nc2ccccc12 | MIC [5]: < 0.06 µg/mL
2 µg/mL (≈ 4.06 µM) | 4 µg/mL (≈ 8.12 µM) | CCOc1c(Br)cc([S+](C)[O-])cc1CNCCCNc1cc(O)c2ccccc2n1 (stereo not given) | 
< 0.06 µg/mL | 0.13 µg/mL (≈ 0.311 µM) | O=c1cc(NCCCNC2CCOc3c(Cl)cc(Cl)cc32)[nH]c2ccccc12 (stereo not given) | 
2 µg/mL (≈ 3.84 µM) | 8 µg/mL (≈ 15.3 µM) | CCOc1c(I)cc(COC)cc1CNCCCNc1cc(O)c2ccccc2n1 | 
4 µg/mL (≈ 10.2 µM) | 8 µg/mL (≈ 20.5 µM) | CCOc1c(C)cc(C#N)cc1CNCCCNc1cc(O)c2ccccc2n1 | 
8 µg/mL (≈ 14.6 µM) | 32 µg/mL (≈ 58.2 µM) | CCOC(=O)c1cc(I)c(OCC)c(CNCCCNc2cc(O)c3ccccc3n2)c1 | 
0.13 µg/mL (≈ 0.263 µM) | 0.5 µg/mL (≈ 1.01 µM) | CNc1c(Br)cc(Br)cc1CNCCCNc1cc(O)c2ccccc2n1 | 
16 µg/mL (≈ 42.5 µM) | 4 µg/mL (≈ 10.6 µM) | Oc1cc(NCCCNCc2cc(Cl)ccc2Cl)nc2ccccc12 | 
< 0.06 µg/mL | 0.13 µg/mL (≈ 0.309 µM) | CCOc1c(Cl)cc(Cl)cc1CNCCCNc1cc(O)c2ccccc2n1 | MIC90 (Staphylococcus aureus [2]): 2 µg/mL (≈ 4.76 µM); MIC90 [3]: 2 µg/mL (≈ 4.76 µM); MIC90 (Enterococcus faecium): < 0.016 µg/mL; MIC90 [4]: 0.06 µg/mL (≈ 0.143 µM)
> 64 µg/mL | > 64 µg/mL | O=C(NCCCNc1cc(O)c2ccccc2n1)c1ccc(Cl)c(Cl)c1 | 
< 0.06 µg/mL | 0.13 µg/mL (≈ 0.282 µM) | CCOc1c(Br)cc(OC)cc1CNCCCNc1cc(O)c2ccccc2n1 | MIC90 (Staphylococcus aureus [2]): 2 µg/mL (≈ 4.34 µM); MIC90 [3]: 2 µg/mL (≈ 4.34 µM); MIC90 (Enterococcus faecium): 0.03 µg/mL (≈ 0.0652 µM); MIC90 [4]: 0.06 µg/mL (≈ 0.13 µM)
